Values joined by “and” are separate entries in the source; they are usually repeats but may differ in a detail not shown here. Equal entries are not always repeated. Numbered stars: 1 amine (or outer) side, 2 acyl side, 3 side chain; on linkers, the order of the positions; unused ones are H or OH. Square brackets hold non-standard residues; d marks the D form. Side chains are listed from the residue outwards. Peptide text beside a SMILES is read from it. * marks the point of attachment. C18 diacid = O=C(O)CCCCCCCCCCCCCCCCC(=O)*; γGlu = O=C(O)[C@H](CCC(=O)[*:2])N[*:1]; 1Nal = N[C@@H](Cc1cccc2ccccc12)C(=O)O; AEEA = NCCOCCOCC(=O)O; Aib = CC(C)(N)C(=O)O
How the values were obtained:
[1] = Pharmacokinetics in cynomolgus monkeys; type: in vivo; conditions: cynomolgus monkey, plasma, single SC 0.2 mg/kg, male monkeys, n = 2; for AUC(0-inf): read-out: Mean AUC0-inf; for half-life: read-out: Mean T1/2 (converted); for Tmax: read-out: Mean Tmax
Experimental: The compounds are administered by a single intravenous or subcutaneous dose (0.2 mg/kg) in 20 mM citrate buffer (pH 7.0) at a volume of 0.21 ml/kg. Blood is collected from each animal at 2, 4, 8, 12, 24, 48, 72, 96, 120, 144, 168, 204, 240, and 312 hours post-dosage. The plasma concentrations of compounds of the present invention are determined by a LC/MS method. Briefly, a compound of the present invention is extracted from 100% Monkey plasma sample (50 μl) diluted with 1×PBS (150 μl) and mixed with N-butanol (400 μl). Three distinct liquid layers are formed with the compound located in the top layer. A volume of 200 μl is transferred to a v-bottom 96-well plate, dried down using heated Nitrogen gas and reconstituted with 100 μl of 30% acetonitrile/0.1% formic acid. 20 μl of the reconstituted sample is injected onto a Supelco Analytical Discovery bio wide C5 3 μm column. The column effluent is directed into a Thermo Q-Exactive mass spectrometer for detection and quantitation.

human GLP-1R [2] = target: T1, human GLP-1R (Homo sapiens, UniProt P43220); experiment: Functional hGLP-1R cAMP assay in HEK-293 clonal cells; type: cell-based; conditions: HEK293; percent of maximal response of hGLP-1(7-36)NH2
T1 construct: expressed in transfected cells; host or cells: 293HEK, Hygromycin-selected; crude plasma membranes
T1 sequence (P43220 24-463): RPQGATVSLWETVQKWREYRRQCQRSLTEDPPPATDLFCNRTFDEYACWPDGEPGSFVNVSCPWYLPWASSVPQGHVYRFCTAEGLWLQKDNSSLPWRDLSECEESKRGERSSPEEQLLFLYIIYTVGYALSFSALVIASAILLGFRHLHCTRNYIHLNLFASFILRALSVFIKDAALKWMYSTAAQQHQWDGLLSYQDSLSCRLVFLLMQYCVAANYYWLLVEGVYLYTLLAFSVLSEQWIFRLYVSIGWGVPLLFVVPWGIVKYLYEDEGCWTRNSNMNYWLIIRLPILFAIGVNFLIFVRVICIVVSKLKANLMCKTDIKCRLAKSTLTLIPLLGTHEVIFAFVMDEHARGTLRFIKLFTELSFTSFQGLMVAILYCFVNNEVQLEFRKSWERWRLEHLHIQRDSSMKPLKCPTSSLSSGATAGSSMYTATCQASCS
Experimental: After an incubation of 60 minutes at room temperature, the resulting increase in intracellular cAMP is quantitatively determined using the CisBio cAMP Dynamic 2 HTRF Assay Kit (Bedford, Mass.). Briefly, cAMP levels within the cell are detected by adding the cAMP-d2 conjugate in cell lysis buffer (20 μl) followed by the antibody anti-cAMP-Eu^3+-Cryptate, also in cell lysis buffer (20 μl). The resulting competitive assay is incubated for at least 60 minutes at room temperature, then detected using a PerkinElmer Envision® instrument with excitation at 320 nm and emission at 665 nm and 620 nm Envision units (emission at 665 nm/620 nm*10,000) are inversely proportional to the amount of cAMP present and are converted to nM cAMP per well using a cAMP standard curve. […] A relative EC50 value and percent top (Emax) is derived by non-linear regression analysis using the percent maximal response versus the concentration of the compound of the present invention, fitted to a four-parameter logistic equation.

human GIP-R = target: T2, human GIP-R (Homo sapiens, UniProt P48546); experiment: Functional hGIP-R cAMP assay in HEK-293 clonal cells; conditions: HEK293, read-out: Human GIP-R Emax
T2 sequence (P48546 22-466): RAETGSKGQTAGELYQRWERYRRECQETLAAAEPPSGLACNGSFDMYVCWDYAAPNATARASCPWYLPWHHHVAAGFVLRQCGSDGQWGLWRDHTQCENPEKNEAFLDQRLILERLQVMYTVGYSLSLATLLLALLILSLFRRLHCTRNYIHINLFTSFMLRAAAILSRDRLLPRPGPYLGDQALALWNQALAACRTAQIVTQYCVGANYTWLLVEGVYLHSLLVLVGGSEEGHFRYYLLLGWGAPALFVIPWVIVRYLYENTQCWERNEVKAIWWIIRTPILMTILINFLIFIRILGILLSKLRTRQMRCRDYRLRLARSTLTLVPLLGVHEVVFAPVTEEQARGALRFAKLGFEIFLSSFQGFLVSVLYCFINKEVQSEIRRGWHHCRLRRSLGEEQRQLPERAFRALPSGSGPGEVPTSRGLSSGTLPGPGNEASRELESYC

[3] = Rat in vivo insulin secretion following intravenous glucose (IVGTT); conditions: s.c. 16 hour prior to glucose
Experimental: Male Wistar rats (Harlan Labs, Indianapolis, Ind.) are randomized by body weight and dosed 1.5 ml/kg s.c. 16 hour prior to glucose administration and then fasted. Doses are vehicle, 0.1, 0.3, 1, 3 and 10 nmol/kg. Animals are weighed, and then anesthetized with sodium pentobarbital (Nembutal Sodium solution; Ovation Pharmaceuticals) dosed i.p. (65 mg/kg, 30 mg/ml). A time zero blood sample is collected into EDTA tubes after which glucose is administered ([…], 5 ml/kg). Blood samples are collected at 2, 4, 6, 10, 20, and 30 minutes post glucose. Plasma glucose levels are determined using a Hitachi analyzer (Roche) and plasma insulin is measured by the MSD insulin assay (Meso Scale, Gaithersburg, Md.).

mouse islets = experiment: Mouse islet insulin secretion; type: cell-based; conditions: read-out: Mouse islet insulin secretion Mean ED50
Experimental: To assess action of compounds of the present invention in a system representing physiological GLP-1R and GIP-R expression levels insulin secretion, compounds are tested for effects on insulin secretion from wild-type rodent islets.
After common bile duct cannulation in male C57B1/6 mice (22-26 g) or male Sprague-Dawley rats (approx. 250 g), the pancreas is distended with Hank's buffer (3 ml for mice or 10 ml for rats, containing 2% BSA and 0.75 mg/ml Clzyme collagenase (VitaCyte). Subsequently, tissues are digested in Hank's buffer at 37° C. for 11-13 minutes (mice) or 14-16 minutes for rat pancreata. Purified islets (Histopaque-1100 gradient [Sigma-Aldrich], […] at 750× gravity) are cultured overnight in RPMI-1640 medium (Invitrogen) containing 10% FBS, 100 U/ml penicillin and 100 μg/ml streptomycin, and preconditioned by starvation in Earle's Balanced Salt Solution (EBSS) supplemented with 0.1% BSA and 2.8 mM glucose. Subsequently, islets are incubated in EBSS (Invitrogen) supplemented with 0.1% BSA, 2.8-11.2 mM glucose and increasing levels of compound (6 batches of 4 islets/condition). GLP-1(7-36)amide (30 nM) is used as a positive control. Insulin is measured over 90 minutes in supernatant using the MSD Insulin Assay (Meso Scale, Gaithersburg, Md.).

[4] = Weight loss, body composition and hepatic steatosis in DIO mice; type: in vivo, mouse; conditions: for Blood Glucose: Day 15
Experimental: The effects on weight loss, body composition and hepatic steatosis in DIO mice for compounds of the present invention are evaluated in C57/BL6 DIO mice. […] Animals are individually housed in a temperature-controlled (24° C.) facility with a 12 hour light/dark cycle (lights on 22:00), and free access to food and water. […] Daily body weight and food intake are measured throughout the study. Absolute changes in body weight are calculated by subtracting the body weight of the same animal prior to the first injection of compound. […] On Day 15, blood glucose is measured with Accu-Chek glucometer (Roche) from tail vein blood and then animals may be sacrificed and livers removed and frozen. Liver triglycerides, determined from homogenates of livers collected at sacrifice, and plasma cholesterol are measured on a Hitachi Modular P clinical analyzer. Statistical comparisons between groups are done using one-way ANOVA followed by Dunnett's multiple comparison test. The ED50 for weight loss lowering is determined in GraphPad Prism using the non-linear fit tool.

Human GCGR = Human GCGR (Homo sapiens, UniProt P47871); experiment: Functional hGCGR cAMP assay in HEK-293 clonal cells
Human GCGR, sequence (P47871 26-477): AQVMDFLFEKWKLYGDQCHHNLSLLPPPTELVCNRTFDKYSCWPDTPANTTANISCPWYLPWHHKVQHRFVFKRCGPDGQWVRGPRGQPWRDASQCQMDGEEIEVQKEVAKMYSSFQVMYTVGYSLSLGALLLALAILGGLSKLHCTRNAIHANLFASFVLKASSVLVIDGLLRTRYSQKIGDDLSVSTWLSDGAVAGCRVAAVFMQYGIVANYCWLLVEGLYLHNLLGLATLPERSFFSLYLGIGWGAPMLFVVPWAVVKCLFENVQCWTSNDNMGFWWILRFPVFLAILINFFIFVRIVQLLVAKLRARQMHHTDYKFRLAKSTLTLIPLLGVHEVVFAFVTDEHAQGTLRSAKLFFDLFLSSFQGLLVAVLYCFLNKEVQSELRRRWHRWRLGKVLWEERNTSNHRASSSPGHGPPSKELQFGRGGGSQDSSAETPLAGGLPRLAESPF

human GLP-1R [5] = target: T1, human GLP-1R; type: binding; conditions: for Molar ratio of hGLP-1R/hGIP-R: normalized by factor 4.53 from native GIP and GLP-1 binding; for Absolute ratio of hGLP-1R/hGIP-R: ratio of Ki values

## CC[C@H](C)[C@H](NC(=O)[C@H](CC(C)C)NC(=O)[C@H](Cc1c[nH]c2ccccc12)NC(=O)[C@H](CCC(N)=O)NC(=O)[C@@H](NC(=O)[C@H](Cc1cccc2ccccc12)NC(=O)[C@H](C)NC(=O)[C@H](CCCCNC(=O)COCCOCCNC(=O)COCCOCCNC(=O)CC[C@H](NC(=O)CCCCCCCCCCCCCCCCC(=O)O)C(=O)O)NC(=O)[C@H](CCC(N)=O)NC(=O)[C@H](C)NC(=O)[C@@H](NC(=O)[C@H](CCCCN)NC(=O)[C@H](CC(=O)O)NC(=O)[C@H](CC(C)C)NC(=O)C(C)(C)NC(=O)[C@@H](NC(=O)[C@H](CO)NC(=O)[C@H](Cc1ccc(O)cc1)NC(=O)[C@H](CC(=O)O)NC(=O)[C@H](CO)NC(=O)[C@@H](NC(=O)[C@H](Cc1ccccc1)NC(=O)[C@@H](NC(=O)CNC(=O)[C@H](CCC(=O)O)NC(=O)C(C)(C)NC(=O)[C@@H](N)Cc1ccc(O)cc1)[C@@H](C)O)[C@@H](C)O)[C@@H](C)CC)[C@@H](C)CC)C(C)C)C(=O)N[C@@H](C)C(=O)NCC(=O)NCC(=O)N1CCC[C@H]1C(=O)N[C@@H](CO)C(=O)N[C@@H](CO)C(=O)NCC(=O)N[C@@H](C)C(=O)N1CCC[C@H]1C(=O)N1CCC[C@H]1C(=O)N1CCC[C@H]1C(=O)N[C@@H](CO)C(N)=O [Example 6] (H-Y[Aib]EGTFTSDYSI[Aib]LDKIAQK([AEEA-AEEA-γGlu-C18 diacid])A[1Nal]VQWLIAGGPSSGAPPPS-NH2)
[1]
  CL/F: 2.8 mL/h/kg
  Cmax: 2200 ng/mL
  AUC(0-inf): 72.3 µg·h/mL
  half-life: 23 h
  Tmax: 4 h
Human GLP-1R [2]
  Emax: 104 ± 4%
Human GIP-R
  Emax: 106 ± 3%
[3]
  % max increase of insulin AUC: 289 +/− 4%
  ED50 for insulin, rat IVGTT: 2.58 nmol/kg
Mouse islets
  EC50: 51.4 nM
[4]; Table 8, 10 nmol/kg
  % Change from starting body weight: −15.31 ± 1.25 %
  % Change from starting fat mass: −24.75 ± 1.89 %
[4]; Table 8, 30 nmol/kg
  % Change from starting body weight: −21.62 ± 0.92 %
  % Change from starting fat mass: −36.30 ± 2.47 %
[4]; Table 8, 100 nmol/kg
  % Change from starting body weight: −33.95 ± 1.93 %
  % Change from starting fat mass: −64.64 ± 4.04 %
[4]; Table 10, 10 nmol/kg
  % Change from starting body weight: −17.54 ± 1.17 %
  % Change from starting fat mass: −34.30 ± 1.20 %
[4]; Table 10, 30 nmol/kg
  % Change from starting body weight: −19.52 ± 1.18 %
  % Change from starting fat mass: −39.52 ± 3.18 %
[4]; Table 10, 100 nmol/kg
  % Change from starting body weight: −29.36 ± 2.62 %
  % Change from starting fat mass: −56.66 ± 4.96 %
[4]; Table 11, 10 nmol/kg
  Plasma Cholesterol: 198.4 ± 6.76 mg/dL
  Plasma Triglycerides: 20.78 ± 4.40 mg/dL
  Blood Glucose: 105.8 ± 2.10 mg/dL
[4]; Table 11, 30 nmol/kg
  Plasma Cholesterol: 186.4 ± 17.04 mg/dL
  Plasma Triglycerides: 26.12 ± 6.85 mg/dL
  Blood Glucose: 100.1 ± 3.29 mg/dL
[4]; Table 11, 100 nmol/kg
  Plasma Cholesterol: 151.4 ± 14.32 mg/dL
  Plasma Triglycerides: 17.26 ± 1.67 mg/dL
  Blood Glucose: 103.6 ± 3.20 mg/dL
[4]; Table 13, 10 nmol/kg
  Plasma Cholesterol: 167.8 ± 15.59 mg/dL
  Blood Glucose: 121.4 ± 2.74 mg/dL
[4]; Table 13, 30 nmol/kg
  Plasma Cholesterol: 159.8 ± 9.99 mg/dL
  Blood Glucose: 121.9 ± 6.65 mg/dL
[4]; Table 13, 100 nmol/kg
  Plasma Cholesterol: 144.2 ± 7.12 mg/dL
  Blood Glucose: 116.1 ± 4.67 mg/dL
Human GCGR
  EC50: > 1000 nM
Human GLP-1R [5]
  Molar ratio of hGLP-1R/hGIP-R: 1.83
  Absolute ratio of hGLP-1R/hGIP-R: 8.3

## CC[C@H](C)[C@H](NC(=O)[C@H](CC(C)C)NC(=O)[C@H](Cc1c[nH]c2ccccc12)NC(=O)[C@H](CCC(N)=O)NC(=O)[C@@H](NC(=O)[C@H](Cc1cccc2ccccc12)NC(=O)[C@H](C)NC(=O)[C@H](CCCCNC(=O)COCCOCCNC(=O)COCCOCCNC(=O)CC[C@H](NC(=O)CC[C@H](NC(=O)CCCCCCCCCCCCCCCCC(=O)O)C(=O)O)C(=O)O)NC(=O)[C@H](CCC(N)=O)NC(=O)[C@H](C)NC(=O)[C@@H](NC(=O)[C@H](CCCCN)NC(=O)[C@H](CC(=O)O)NC(=O)[C@H](CC(C)C)NC(=O)C(C)(C)NC(=O)[C@@H](NC(=O)[C@H](CO)NC(=O)[C@H](Cc1ccc(O)cc1)NC(=O)[C@H](CC(=O)O)NC(=O)[C@H](CO)NC(=O)[C@@H](NC(=O)[C@H](Cc1ccccc1)NC(=O)[C@@H](NC(=O)CNC(=O)[C@H](CCC(=O)O)NC(=O)C(C)(C)NC(=O)[C@@H](N)Cc1ccc(O)cc1)[C@@H](C)O)[C@@H](C)O)[C@@H](C)CC)[C@@H](C)CC)C(C)C)C(=O)N[C@@H](C)C(=O)NCC(=O)NCC(=O)N1CCC[C@H]1C(=O)N[C@@H](CO)C(=O)N[C@@H](CO)C(=O)NCC(=O)N[C@@H](C)C(=O)N1CCC[C@H]1C(=O)N1CCC[C@H]1C(=O)N1CCC[C@H]1C(=O)N[C@@H](CO)C(N)=O [Example 7] (H-Y[Aib]EGTFTSDYSI[Aib]LDKIAQK([AEEA-AEEA-γGlu-γGlu-C18 diacid])A[1Nal]VQWLIAGGPSSGAPPPS-NH2)
[1]
  CL/F: 1.5 mL/h/kg
  Cmax: 2900 ng/mL
  AUC(0-inf): 136 µg·h/mL
  half-life: 31 h
  Tmax: 6 h
Human GLP-1R [2]
  Emax: 97.2 ± 3.4%
Human GIP-R
  Emax: 106 ± 3%
[3]
  % max increase of insulin AUC: 278 +/− 26% and 335 +/− 35%
Mouse islets
  EC50: 11.3 nM
[4]; Table 10, 10 nmol/kg
  % Change from starting body weight: −15.08 ± 1.22 %
  % Change from starting fat mass: −26.46 ± 2.31 %
[4]; Table 10, 30 nmol/kg
  % Change from starting body weight: −20.70 ± 1.95 %
  % Change from starting fat mass: −43.49 ± 5.47 %
[4]; Table 10, 100 nmol/kg
  % Change from starting body weight: −24.36 ± 2.06 %
  % Change from starting fat mass: −49.92 ± 3.40 %
[4]; Table 13, 10 nmol/kg
  Plasma Cholesterol: 161.8 ± 6.2 mg/dL
  Blood Glucose: 113.6 ± 4.16 mg/dL
[4]; Table 13, 30 nmol/kg
  Plasma Cholesterol: 153.6 ± 13.47 mg/dL
  Blood Glucose: 114.7 ± 4.70 mg/dL
[4]; Table 13, 100 nmol/kg
  Plasma Cholesterol: 145.4 ± 9.48 mg/dL
  Blood Glucose: 114 ± 2.36 mg/dL
Human GCGR
  EC50: > 1000 nM
Human GLP-1R [5]
  Molar ratio of hGLP-1R/hGIP-R: 1.68
  Absolute ratio of hGLP-1R/hGIP-R: 7.6
